Reference: ChEMBL document CHEMBL1130408, “Repromicin derivatives with potent antibacterial activity against Pasteurella multocida” (1997)
≈ marks a conversion by molar mass, not a printed value.

Key:
Mus musculus = species: Mus musculus; assay: Protected dose which protects 50% of challenged mice from death owing to the Pasteurella multocida (59A006) infection; type: functional; details: read-out: PD50
Pasteurella multocida = assay: Minimum inhibitory concentration required to inhibit Pasteurella multocida 59A006 in vitro; type: functional

Row | Compound | ED50 (Mus musculus) [mg/kg] | MIC (Pasteurella multocida) [mg/L]
1 | CCC1OC(=O)CC(O)C(C)C(O[C@@H]2O[C@H](C)C[C@H](N(C)C)[C@H]2O)C(CC=O)CC(C)C(=O)/C=C/C(C)=C/C1C (stereo partly specified) | > 200 | 0.39 (≈ 0.689 µM)
2 | CC[C@H]1OC(=O)CC(O)[C@H](C)[C@@H](O[C@@H]2O[C@H](C)C[C@H](N(C)C)[C@H]2O)[C@@H](CCN2CCOCC2)C[C@@H](C)C(=O)/C=C/C(C)=C/[C@@H]1C (stereo partly specified) | > 150 | 0.78 (≈ 1.22 µM)
3 | CC[C@H]1OC(=O)CC(O)[C@H](C)[C@@H](O[C@@H]2O[C@H](C)C[C@H](N(C)C)[C@H]2O)[C@@H](CCN2CCC2)C[C@@H](C)C(=O)/C=C/C(C)=C/[C@@H]1C (stereo partly specified) | 46 | 0.2 (≈ 0.33 µM)
4 | CC[C@H]1OC(=O)CC(O)[C@H](C)[C@@H](O[C@@H]2O[C@H](C)[C@@H](O)[C@H](N(C)C)[C@H]2O)[C@@H](CCN(C)CCCN(C)C)C[C@@H](C)C(=O)/C=C/C(C)=C/[C@@H]1CO[C@@H]1O[C@H](C)[C@@H](O)[C@@H](OC)[C@H]1OC (stereo partly specified) | 41 | 3.13 (≈ 3.59 µM)
5 | CC[C@H]1OC(=O)CC(O)[C@H](C)[C@@H](O[C@@H]2O[C@H](C)C[C@H](N(C)C)[C@H]2O)[C@@H](CCN2CC(C)CC(C)C2)C[C@@H](C)C(=O)/C=C/[C@]2(C)O[C@H]2[C@@H]1C (stereo partly specified) | > 150 | 0.2 (≈ 0.295 µM)
6 | CC[C@H]1OC(=O)CC(O)[C@H](C)[C@@H](O[C@@H]2O[C@H](C)[C@@H](O)[C@H](N(C)C)[C@H]2O)[C@@H](CCN(C)CCN(C)C)C[C@@H](C)C(=O)/C=C/C(C)=C/[C@@H]1CO[C@@H]1O[C@H](C)[C@@H](O)[C@@H](OC)[C@H]1OC (stereo partly specified) | > 50 | 3.13 (≈ 3.65 µM)
7 | CC[C@H]1OC(=O)CC(O)[C@H](C)[C@@H](O[C@@H]2O[C@H](C)C[C@H](N(C)C)[C@H]2O)[C@@H](CCN(CC)CC)C[C@@H](C)C(=O)/C=C/C(C)=C/[C@@H]1C (stereo partly specified) | 141 | 0.39 (≈ 0.626 µM)
8 | CC[C@H]1OC(=O)CC(O)[C@H](C)[C@@H](O[C@@H]2O[C@H](C)C[C@H](N(C)C)[C@H]2O)[C@@H](CCN(C)CCCN(C)C(=O)CNC)C[C@@H](C)C(=O)/C=C/C(C)=C/[C@@H]1C (stereo partly specified) | 6 | 0.39 (≈ 0.539 µM)
9 | CC[C@H]1OC(=O)CC(O)[C@H](C)[C@@H](O[C@@H]2O[C@H](C)C[C@H](N(C)C)[C@H]2O)[C@@H](CCN2CCCCC2)C[C@@H](C)C(=O)/C=C/[C@]2(C)O[C@H]2[C@@H]1C (stereo partly specified) | 114 | 0.2 (≈ 0.307 µM)
10 | CC[C@H]1OC(=O)CC(O)[C@H](C)[C@@H](O[C@@H]2O[C@H](C)C[C@H](N(C)C)[C@H]2O)[C@@H](CCNCCCN(C)C)C[C@@H](C)C(=O)/C=C/C(C)=C/[C@@H]1C (stereo partly specified) | 5 | 0.39 (≈ 0.598 µM)
11 | CC[C@H]1OC(=O)CC(O)[C@H](C)[C@@H](O[C@@H]2O[C@H](C)C[C@H](N(C)C)[C@H]2O)[C@@H](CCNCCO)C[C@@H](C)C(=O)/C=C/C(C)=C/[C@@H]1C (stereo partly specified) | 10 | 0.2 (≈ 0.327 µM)
12 | CC[C@H]1OC(=O)CC(O)[C@H](C)[C@@H](O[C@@H]2O[C@H](C)C[C@H](N(C)C)[C@H]2O)[C@@H](CCN(CCCN(C)C)C(=O)[C@H](C)N)C[C@@H](C)C(=O)/C=C/C(C)=C/[C@@H]1C (stereo partly specified) | 3 | 0.39 (≈ 0.539 µM)
13 | CC[C@H]1OC(=O)CC(O)[C@H](C)[C@@H](O[C@@H]2O[C@H](C)C[C@H](N(C)C)[C@H]2O)[C@@H](CCN(C)CCCNC)C[C@@H](C)C(=O)/C=C/C(C)=C/[C@@H]1C (stereo partly specified) | 4 | 0.78 (≈ 1.2 µM)
14 | CC[C@H]1OC(=O)CC(O)[C@H](C)[C@@H](O[C@@H]2O[C@H](C)C[C@H](N(C)C)[C@H]2O)[C@@H](CCN2CC(O)C2)C[C@@H](C)C(=O)/C=C/C(C)=C/[C@@H]1C (stereo partly specified) | 19 | 0.2 (≈ 0.321 µM)
15 | CC[C@H]1OC(=O)CC(O)[C@H](C)[C@@H](O[C@@H]2O[C@H](C)C[C@H](N(C)C)[C@H]2O)[C@@H](CCN(CCCN(C)C)C(C)=O)C[C@@H](C)C(=O)/C=C/C(C)=C/[C@@H]1C (stereo partly specified) | > 25 | 0.39 (≈ 0.562 µM)
16 | CC[C@H]1OC(=O)CC(O)[C@H](C)[C@@H](O[C@@H]2O[C@H](C)C[C@H](N(C)C)[C@H]2O)[C@@H](CCN(C)CCCN(C)C(=O)[C@H](C)N)C[C@@H](C)C(=O)/C=C/C(C)=C/[C@@H]1C (stereo partly specified) | 5 | 0.39 (≈ 0.539 µM)
17 | CO[C@@H]1[C@@H](O[C@@H]2O[C@H](C)[C@@H](O[C@H]3C[C@@](C)(O)[C@@H](OC(=O)CC(C)C)[C@@H](C)O3)[C@@H](N(C)C)[C@H]2O)[C@@H](CC=O)C[C@@H](C)C(=O)/C=C/C=C/C[C@@H](C)OC(=O)C[C@H]1OC(C)=O | > 150 | 6.25 (≈ 7.57 µM)
18 | CC[C@H]1OC(=O)CC(O)[C@H](C)[C@@H](O[C@@H]2O[C@H](C)C[C@H](N(C)C)[C@H]2O)[C@@H](CCN(C)CC)C[C@@H](C)C(=O)/C=C/C(C)=C/[C@@H]1C (stereo partly specified) | 150 | 0.2 (≈ 0.328 µM)
19 | CC[C@H]1OC(=O)CC(O)[C@H](C)[C@@H](O[C@@H]2O[C@H](C)[C@@H](O)[C@H](N(C)C)[C@H]2O)[C@@H](CCNCCCN(C)C)C[C@@H](C)C(=O)/C=C/C(C)=C/[C@@H]1CO[C@@H]1O[C@H](C)[C@@H](O)[C@@H](OC)[C@H]1OC (stereo partly specified) |  | 12.5 (≈ 14.6 µM)
20 | CC[C@H]1OC(=O)CC(O)[C@H](C)[C@@H](O[C@@H]2O[C@H](C)C[C@H](N(C)C)[C@H]2O)[C@@H](CCN(C)CCNC)C[C@@H](C)C(=O)/C=C/C(C)=C/[C@@H]1C (stereo partly specified) | > 20 | 0.2 (≈ 0.314 µM)
21 | CC[C@H]1OC(=O)CC(O)[C@H](C)[C@@H](O[C@@H]2O[C@H](C)C[C@H](N(C)C)[C@H]2O)[C@@H](CCNC(CO)CO)C[C@@H](C)C(=O)/C=C/C(C)=C/[C@@H]1C (stereo partly specified) | 31 | 0.39 (≈ 0.609 µM)
22 | CC[C@H]1OC(=O)CC(O)[C@H](C)[C@@H](O[C@@H]2O[C@H](C)C[C@H](N(C)C)[C@H]2O)[C@@H](CCN(C)CCO)C[C@@H](C)C(=O)/C=C/C(C)=C/[C@@H]1C (stereo partly specified) | 45 | 0.2 (≈ 0.32 µM)
23 | CC[C@H]1OC(=O)CC(O)[C@H](C)[C@@H](O[C@@H]2O[C@H](C)C[C@H](N(C)C)[C@H]2O)[C@@H](CCNC2C(O)CCCC2O)C[C@@H](C)C(=O)/C=C/C(C)=C/[C@@H]1C (stereo partly specified) | 11 | 0.2 (≈ 0.294 µM)
24 | CC[C@H]1OC(=O)CC(O)[C@H](C)[C@@H](O[C@@H]2O[C@H](C)[C@@H](O)[C@H](N(C)C)[C@H]2O)[C@@H](CCN(C)CCCNC)C[C@@H](C)C(=O)/C=C/C(C)=C/[C@@H]1CO[C@@H]1O[C@H](C)[C@@H](O)[C@@H](OC)[C@H]1OC (stereo partly specified) |  | 25 (≈ 29.1 µM)
25 | CC[C@H]1OC(=O)CC(O)[C@H](C)[C@@H](O[C@@H]2O[C@H](C)C[C@H](N(C)C)[C@H]2O)[C@@H](CCN(C)CCN(C)C(=O)[C@H](C)N)C[C@@H](C)C(=O)/C=C/C(C)=C/[C@@H]1C (stereo partly specified) | 12 | 0.05 (≈ 0.0705 µM)
26 | CC[C@H]1OC(=O)CC(O)[C@H](C)[C@@H](O[C@@H]2O[C@H](C)C[C@H](N(C)C)[C@H]2O)[C@@H](CCN(C)CCN(C)C(=O)CN)C[C@@H](C)C(=O)/C=C/C(C)=C/[C@@H]1C (stereo partly specified) | 4 | 0.2 (≈ 0.288 µM)
27 | CCNCC[C@H]1C[C@@H](C)C(=O)/C=C/C(C)=C/[C@H](C)[C@@H](CC)OC(=O)CC(O)[C@H](C)[C@H]1O[C@@H]1O[C@H](C)C[C@H](N(C)C)[C@H]1O (stereo partly specified) | > 150 | 0.2 (≈ 0.336 µM)
28 | CC[C@H]1OC(=O)CC(O)[C@H](C)[C@@H](O[C@@H]2O[C@H](C)C[C@H](N(C)C)[C@H]2O)[C@@H](CCN2CCCC2)C[C@@H](C)C(=O)/C=C/C(C)=C/[C@@H]1C (stereo partly specified) | 128 | 0.39 (≈ 0.628 µM)
29 | CC[C@H]1OC(=O)CC(O)[C@H](C)[C@@H](O[C@@H]2O[C@H](C)C[C@H](N(C)C)[C@H]2O)[C@@H](CCN(CCCN(C)C)C(=O)CNC)C[C@@H](C)C(=O)/C=C/C(C)=C/[C@@H]1C (stereo partly specified) | 6 | 1.56 (≈ 2.16 µM)
